For assay [1], the system named is B16. In words: Cytotoxicity against mouse B16 cells after 72 hrs by MTT assay. It counts as functional, cell-based. Particulars: B16, 72 h.
The subject of assay [2] is L1210. The experiment in a line: Cytotoxicity against mouse L1210 cells after 72 hrs by MTT assay. It counts as functional, cell-based. The settings on record: L1210, 72 h.
In assay [3] the test system is A10. In words: Reduction of microtubules in […] A10 cells. It counts as functional, cell-based. The settings on record: Rattus norvegicus.
For assay [4], the system named is A10. In words: Reduction of microtubules in human A10 cells at 40 uM. It counts as functional. More on the design: scale not given: the % may be the effect or the level left.

Turning to `COc1ccc(C2CC(c3cc(OC)c(OC)c(OC)c3)=NN2)cc1O` (stereo not drawn), the IC50 in assay [1] was determined as 2.1 µM; in assay [2], 0.5 µM. A half-maximal response in assay [3] (EC50) required 7.1 µM.
On to `COc1ccc(C2CC(c3cc(OC)c(OC)c(OC)c3)=NN2)cc1OC` (stereo not drawn), for which the IC50 in assay [1] worked out at 44 µM; in assay [2], 42 µM.
For `COc1cc(C2=NNC(c3cc(OC)c(OC)c(OC)c3)C2)cc(OC)c1OC` (stereo not drawn), in that order: 56 µM and 24 µM.
The corresponding values for `COc1ccccc1C1CC(c2cc(OC)c(OC)c(OC)c2)=NN1C(C)=O` (stereo not drawn) are above 100 µM and 43 µM.
For `COc1ccc(C2CC(c3cc(OC)c(OC)c(OC)c3)=NN2C(C)=O)cc1[N+](=O)[O-]` (stereo not drawn), in that order: above 100 µM and 52 µM.
In the case of `COc1cc(C2=NN(C(C)=O)C(c3ccc(Cl)cc3)C2)cc(OC)c1OC` (stereo not drawn), the IC50 in assay [1] worked out at 35 µM; in assay [2] it was 30 µM.
For `COc1ccc(C2CC(c3cc(OC)c(OC)c(OC)c3)=NN2C(C)=O)cc1O` (stereo not drawn), the IC50 in assay [1] and in assay [2] was above 100 µM throughout. In assay [4], the Activity is 10%.
Turning to `COc1cccc(C2CC(c3cc(OC)c(OC)c(OC)c3)=NN2C(C)=O)c1` (stereo not drawn), the 50% inhibitory concentration (IC50) in assay [1] was above 100 µM; in assay [2] it was 44 µM.
The corresponding values for `COc1ccc(OC)c(C2CC(c3cc(OC)c(OC)c(OC)c3)=NN2C(C)=O)c1` (stereo not drawn) are above 100 µM and above 100 µM.
In the case of `COc1cc(C2=NN(C(C)=O)C(c3ccc([N+](=O)[O-])cc3)C2)cc(OC)c1OC` (stereo not drawn), the IC50 is 51 µM in assay [1] and 42 µM in assay [2].
The corresponding values for `COc1cc(OC)c(C2CC(c3cc(OC)ccc3OC)=NN2C(C)=O)c(OC)c1` (stereo not drawn) are 69 µM and 33 µM.
For `COc1ccc(OC)c(C2=NN(C(C)=O)C(c3ccc(OC)c([N+](=O)[O-])c3)C2)c1` (stereo not drawn), in that order: 58 µM and 40 µM.
For `COc1ccc(OC)c(C2=NN(C(C)=O)C(c3ccc(OC)c(OC)c3)C2)c1` (stereo not drawn), in that order: 62 µM and 28 µM.

For the origin of these results see ChEMBL document CHEMBL1137485, “Design, synthesis, and biological testing of pyrazoline derivatives of combretastatin-A4” (Bioorg Med Chem Lett, 2007).
